Measured values: patent US7405063B2, “Biooxidation capabilities of Candida sp” (Cognis Corporation, priority 2000, dated 2008)
Read-outs that look alike come from different tables or passages of the source.

Key:
[1] = test system: C. tropicalis strain H5343; assay: Toxicity tests of substrates (growth by absorbance at 600 nm, streak plates); type: cell-based; details: 48 h, 30° C., dilution in YPD 1:100
Description: The toxicity test used here was similar to that used for the solvents described in Example 1. The goal was to determine the highest concentration at which a substrate could be added to a culture broth without being toxic, inhibiting growth, or interfering with the bioconversion process. C. tropicalis strain H5343 was grown in the presence of the substrate at different concentrations and growth was monitored spectrophotometrically. In order to determine if the substrate was lethal or was simply inhibiting growth, the cultures were examined under the microscope and streak plates of YPD and LB agar were prepared. Contamination of the culture with an unwanted organism could also be detected using this approach.
6 ml was transferred to the first tube and 3 ml to the rest. 1% substrate was added to the first tube and then serially diluted to give concentrations from 1% to 0.015%. Since the last tube was initially empty, the concentration in the last two tubes was the same. […] As a growth-control one culture without substrate was inoculated.
To determine if contamination had occurred, each culture was examined under the microscope and streak plates of both YPD and LB were made from the 1% and the inoculated 0.015% tube.

[2] = test system: C. tropicalis; assay: Toxicity tests of additional substrates (absorbance at 600 nm); type: cell-based; details: for Absorbance at 600 nm: 24 hours, added without solvent
Description: Additional substrates were to be tested for bioconversion following a slightly different protocol than the one noted above in Example 3. Those substrates also had to be tested for toxicity similar to the test described in Example 2, to determine the highest concentration at which a substrate could be added to a culture broth without being toxic, inhibiting growth, or interfering with the bioconversion process. C. tropicalis was grown in the presence of the substrate at three different concentrations and growth was monitored spectrophotometrically. In contrast to Example 2, all test substrates were added directly to the culture medium without dissolving in solvent. The tests were completed as follows:
On the first day, H5343 was grown in YPD medium (25.0 ml seed culture) overnight on a rotary shaker at 30° C. and 250 rpm. The next day 1.0 ml of the seed culture was used to inoculate a new flask of 50 ml YPD. This culture was grown overnight on a rotary shaker at 30° C. and 250 rpm. […]
Two control flasks were each inoculated with H5343 in 25 ml YPD. All flasks were incubated on a rotary shaker at 30° C. and 250 rpm.
After 24 hours incubation, the absorbance at 600 nm of the test and control flask cultures was determined, using uninoculated YPD broth as blank. Cultures were diluted so that the OD^600 nm measured between 0.15 and 0.3.
For strongly inhibitory substrates, a concentration of 0.1-0.2% was chosen for the bioconversion tests.

[3] = test system: C. tropicalis strain H5343; details: for nontoxic concentration of solvent: growth of strain H5343; for ABS Lambda = 600.0 nm: 24 h, 30° C., dilution in YPD 1:100

**Q.** What does the source list for `CCCCCCCCC(CO)CCCCCC` (centres unmarked) [2-Hexyl-1-decanol]?
**A.** ABS 600.0 nm ([1]; substrate concentration 0.01563%): 0.120; ABS 600.0 nm ([1]; substrate concentration 0.0313%): 0.145; ABS 600.0 nm ([1]; substrate concentration 0.063%): 0.110; ABS 600.0 nm ([1]; substrate concentration 0.13%): 0.273; ABS 600.0 nm ([1]; substrate concentration 0.25%): 0.145; ABS 600.0 nm ([1]; substrate concentration 0.5%): 0.122; ABS 600.0 nm ([1]; substrate concentration 1%): 0.117; Absorbance at 600 nm ([2]; substrate concentration 0.1%): 24.43; Absorbance at 600 nm ([2]; substrate concentration 0.5%): 19.73; Absorbance at 600 nm ([2]; substrate concentration 1.0%): 11.93

**Q.** Which “Absorbance at 600 nm” value ([2]; substrate concentration 0.06%) does the source give for `CCCCC(=O)C(C)C` [2-Methyl-3-heptanone] here?
**A.** 19.2

**Q.** What about the “Absorbance at 600 nm” value ([2]; substrate concentration 0.3%) of the same compound?
**A.** 0.099

**Q.** And the “Absorbance at 600 nm” value ([2]; substrate concentration 0.6%)?
**A.** 0.125

**Q.** `CCCCCCC(C)O` (centres unmarked) [2-Octanol] was tested. Which “Toxic at (concentration)” value ([2]; Phase II screening summary) did it give?
**A.** Toxic at 0.1%

**Q.** What about the “Absorbance at 600 nm” value ([2]; substrate concentration 0.1%) of the same compound?
**A.** 0.250

**Q.** What about the “Absorbance at 600 nm” value ([2]; substrate concentration 0.5%) of the same compound?
**A.** 0.235

**Q.** What about the “Absorbance at 600 nm” value ([2]; substrate concentration 1.0%) of the same compound?
**A.** 0.285

**Q.** Which results are given for `CCCCC(CC)C1OCCN1CCCC` (centres unmarked) [3-Butyl-(ethylpentyl)oxazolidine, 3-Butyl-2(1-ethylpentyl)oxazolidine]?
**A.** Absorbance at 600 nm ([2]; substrate concentration 0.06%): 12.5; Absorbance at 600 nm ([2]; substrate concentration 0.3%): 0.245; Absorbance at 600 nm ([2]; substrate concentration 0.6%): 1.18

**Q.** Which results are given for `CCCCCCc1ccsc1` [3-Hexylthiophene]?
**A.** Absorbance at 600 nm ([2]; substrate concentration 0.1%): 0.933; Absorbance at 600 nm ([2]; substrate concentration 0.5%): 1.033; Absorbance at 600 nm ([2]; substrate concentration 1.0%): 1.223

**Q.** What does the source list for `CC(C)=O` [Acetone]?
**A.** nontoxic concentration of solvent [3]: ≤ 4%; ABS Lambda = 600.0 nm ([3]; solvent concentration 0.25%): 0.123; ABS Lambda = 600.0 nm ([3]; solvent concentration 0.5%): 0.183; ABS Lambda = 600.0 nm ([3]; solvent concentration 1%): 0.111; ABS Lambda = 600.0 nm ([3]; solvent concentration 2%): 0.149; ABS Lambda = 600.0 nm ([3]; solvent concentration 4%): 0.087

**Q.** How did the “Absorbance at 600 nm” value ([2]; substrate concentration 0.1%) turn out when `CCCCC1CCCCC1` [Butylcyclohexane] was run?
**A.** 22.03

**Q.** And the “Absorbance at 600 nm” value ([2]; substrate concentration 0.5%)?
**A.** 21.13

**Q.** And the “Absorbance at 600 nm” value ([2]; substrate concentration 1.0%)?
**A.** 20.33

**Q.** What does the source list for `CCCCC(C(=O)O)C(=O)O` [Butylmalonic Acid]?
**A.** Absorbance at 600 nm ([2]; substrate concentration 0.1%): 27.43; Absorbance at 600 nm ([2]; substrate concentration 0.5%): 27.13; Absorbance at 600 nm ([2]; substrate concentration 1.0%): 8.53

**Q.** Which results are given for `CCCC[S+]([O-])CCCC` [Butylsulfoxide, dibutylsulfoxide]?
**A.** Absorbance at 600 nm ([2]; substrate concentration 0.1%): 15.63; Absorbance at 600 nm ([2]; substrate concentration 0.5%): 11.37; Absorbance at 600 nm ([2]; substrate concentration 1.0%): 5.81

**Q.** Which “Absorbance at 600 nm” value ([2]; substrate concentration 0.1%) does the source give for `C=COCCCCCCCCCCCC` [Dodecylvinylether] here?
**A.** 20.43

**Q.** What about the “Absorbance at 600 nm” value ([2]; substrate concentration 0.5%) of the same compound?
**A.** 12.63

**Q.** And the “Absorbance at 600 nm” value ([2]; substrate concentration 1.0%)?
**A.** 7.33

**Q.** `CCO` [Ethanol] was tested. Which “nontoxic concentration of solvent” value [3] did it give?
**A.** 4%

**Q.** What about the “ABS Lambda = 600.0 nm” value ([3]; solvent concentration 0.25%) of the same compound?
**A.** 0.122

**Q.** And the “ABS Lambda = 600.0 nm” value ([3]; solvent concentration 0.5%)?
**A.** 0.104

**Q.** What about the “ABS Lambda = 600.0 nm” value ([3]; solvent concentration 1%) of the same compound?
**A.** 0.137

**Q.** What about the “ABS Lambda = 600.0 nm” value ([3]; solvent concentration 2%) of the same compound?
**A.** 0.119

**Q.** What about the “ABS Lambda = 600.0 nm” value ([3]; solvent concentration 4%) of the same compound?
**A.** 0.090

**Q.** Which “Absorbance at 600 nm” value ([2]; substrate concentration 0.06%) does the source give for `CCC1CCCCC1` [Ethylcyclohexane] here?
**A.** 9.45

**Q.** What about the “Absorbance at 600 nm” value ([2]; substrate concentration 0.3%) of the same compound?
**A.** 2.03

**Q.** And the “Absorbance at 600 nm” value ([2]; substrate concentration 0.6%)?
**A.** 16.5

**Q.** How did the “nontoxic concentration of solvent” value [3] turn out when `CCCCCC` [Hexane] was run?
**A.** 2%

**Q.** What about the “ABS Lambda = 600.0 nm” value ([3]; solvent concentration 0.25%) of the same compound?
**A.** 0.119

**Q.** What about the “ABS Lambda = 600.0 nm” value ([3]; solvent concentration 0.5%) of the same compound?
**A.** 0.148

**Q.** What about the “ABS Lambda = 600.0 nm” value ([3]; solvent concentration 1%) of the same compound?
**A.** 0.119

**Q.** And the “ABS Lambda = 600.0 nm” value ([3]; solvent concentration 2%)?
**A.** 0.126

**Q.** What about the “ABS Lambda = 600.0 nm” value ([3]; solvent concentration 4%) of the same compound?
**A.** 0.005

**Q.** What does the source list for `CCCCCCOCCCCCC` [Hexyl Ether, Dihexyl Ether]?
**A.** Absorbance at 600 nm ([2]; substrate concentration 0.1%): 12.85; Absorbance at 600 nm ([2]; substrate concentration 0.5%): 13.21; Absorbance at 600 nm ([2]; substrate concentration 1.0%): 3.33

**Q.** For `CC1CCCCC1` [Methylcyclohexane], which “Absorbance at 600 nm” value ([2]; substrate concentration 0.06%) is on record?
**A.** 13.7

**Q.** And the “Absorbance at 600 nm” value ([2]; substrate concentration 0.3%)?
**A.** 15.6

**Q.** And the “Absorbance at 600 nm” value ([2]; substrate concentration 0.6%)?
**A.** 0.16

**Q.** For `CCCCCOCCCCC` [Pentyl Ether, Dipentyl Ether], which “Absorbance at 600 nm” value ([2]; substrate concentration 0.1%) is on record?
**A.** 2.033

**Q.** And the “Absorbance at 600 nm” value ([2]; substrate concentration 0.5%)?
**A.** 1.863

**Q.** What about the “Absorbance at 600 nm” value ([2]; substrate concentration 1.0%) of the same compound?
**A.** 1.813

**Q.** How did the “Absorbance at 600 nm” value ([2]; substrate concentration 0.1%) turn out when `CCCC1CCCCC1` [Propylcyclohexane] was run?
**A.** 44.13

**Q.** What about the “Absorbance at 600 nm” value ([2]; substrate concentration 0.5%) of the same compound?
**A.** 34.12

**Q.** What about the “Absorbance at 600 nm” value ([2]; substrate concentration 1.0%) of the same compound?
**A.** 1.201
